{"source": "patent US7670838B2", "about": "“Coupling of excitation and neurogenesis in neural stem/progenitor cells” (priority 2004, dated 2010)", "key": {"[1]": {"system": "adult hippocampal NPCs in vivo", "experiment": "In vivo neurogenesis assay (BrdU labeling, hippocampus)", "set-up": "species or system rat", "details": "for neuronal fraction of newborn cells: 1 mg/kg"}, "[2]": {"details": "rat, in vivo"}, "[3]": {"system": "adult hippocampal NPCs", "experiment": "Neurogenesis from adult NPCs on ethanol-fixed hippocampal substrate (MAP2ab)", "type": "cell-based, rat", "details": "for neurogenesis with the agonist as stimulus: FPL 64176 5 μM, NMDA 50 μM", "description": "Hippocampal cell culture. […] Tissue was treated with papain (20 U/ml) in 10 ml of this solution with additional (in mM) 1.7 cysteine, 1 CaCl2, and 0.5 EDTA for 45 min at 37° C. The digestion was stopped by replacing the solution with 10 ml of MEM/Earle's salts without L-glutamine along with 20 mM glucose, Serum Extender (1:1000), and 10% heat-inactivated fetal bovine serum containing 25 mg of bovine serum albumin (BSA) and 25 mg of trypsin inhibitor. The tissue was triturated in a small volume of this solution with a fire-polished Pasteur pipette, and ˜100,000 cells in 1 mL plated per coverslip in 24-well plates. Glass coverslips (pre-washed overnight in HCl followed by several 100% EtOH washes and flame sterilization) were coated overnight at 37° C. with 1:50 Matrigel (Collaborative Biomedical Products, Bedford, Mass.). Cells were plated in culture medium, Neurobasal containing 2× B-27 (Life Technologies) and 2 mM Glutamax-I (Life Technologies). […] For lightly fixed tissue experiments, stem/progenitor cells were plated after hippocampal cultures at 7 DIV were exposed to 70% EtOH at −20° C. for 30 min, then washed 2× in sterile PBS.\n(§1) Stem cell coculture. […] Mitotic inhibitor FUDR (5-fluoro-2′-deoxyuridine) was included with uridine at 0.3 mM unless otherwise indicated at the start of the sixth day post-plating, after cell cycle exit and initiation of differentiation, to allow for long term culture (in some experiments 50 μM D-AP5 (RBI) was also included as noted in the text). Thereafter cultures were supplemented with NT3 to 20 ng/mL every 2-3 days until cocultures were 9-16 days old (control and experimental conditions were always conducted in parallel and therefore were age-matched at all times), at which point neurogenesis assays were performed.\n(§2) Excitation of NPCs in coculture. […] Divalent cation concentration was maintained constant in external calcium variation experiments by replacement with equimolar magnesium. […] Persistent stimuli were used except where noted, to mimic areas of local persistent high activity and to avoid rebound or washoff effects. […] An advantage of using depolarization for these brief stimuli is that the logarithmic dependence of depolarization on extracellular potassium described by the Nernst equation obviates the need for extensive washing of the stimulated sample prior to reapplication of the control medium.\n(§3) Immunocytochemistry and transfection. Cells were fixed in 4% formaldehyde (EM Sciences)/PBS for 20-30 min, washed 3×5 min in PBS/0.1 M glycine, permeabilized for 5 min in 0.1% Triton/PBS/3% BSA, washed 3×5 min in PBS/glycine, blocked for 1-2 hr in PBS/3% BSA, and incubated overnight at 4° C. in PBS/3%BSA/primary antibodies. Cells were then washed 3×5 min in PBS, incubated for 1 hr at 37° C. in PBS/3%BSA/secondary antibodies, washed 3×10 min in PBS, and mounted in Fluoromount (Electron Microscopy Sciences). TUNEL staining was performed with Apoptag Red (Serologicals). […] Cotransfections were carried out with Lipofectamine 2000 according to the manufacturer's instructions immediately after NPC plating. […] As with all experiments, stimulation or control conditions were initiated 24 hr after transfection on Day 1.\nConfocal imaging and analysis. Images were acquired on a Zeiss LSM confocal microscope. Random fields containing GFP+ cells were selected for acquisition under GFP excitation without knowledge of experimental condition, and subsequently scanned using laser lines appropriate to excite the fluorophores corresponding to MAP2ab and other antigens. Data were analyzed using Metamorph software from Universal Imaging."}, "[4]": {"system": "adult rat hippocampal NPCs", "experiment": "Neurogenesis from adult NPCs in living hippocampal coculture (MAP2ab)", "type": "cell-based", "description": "as §1, §2, §3\nConfocal imaging and analysis. Images were acquired on a Zeiss LSM confocal microscope. Random fields containing GFP+ cells were selected for acquisition under GFP excitation without knowledge of experimental condition, and subsequently scanned using laser lines appropriate to excite the fluorophores corresponding to MAP2ab and other antigens. Data were analyzed using Metamorph software from Universal Imaging. […] Mean data from 12 independent experiments conducted with potassium depolarization were used as the reference point for effects of pharmacological interventions in coculture. For evaluation of proliferation and survival effects, daily cell counts as well as TUNEL and BrdU staining were performed in parallel stimulated and unstimulated cultures. BrdU was applied to cultures at 5 μM for 2 hr, and BrdU staining was conducted with a 20-30 min postfixation and subsequent incubation at 37° C. for 20-30 min in 1 N HCl. For Ca^2+ imaging, x-Rhod-1 AM (Molecular Probes) was loaded at 10 μM for 30 min at 37° C. into cells on the fixed coculture substrate 1-2 days after initiation of mitogen taper."}, "[5]": {"experiment": "Tolerability of treatments in the in vivo neurogenesis assay", "details": "4 mg/kg"}, "[6]": {"system": "voltage-activated Na+ current", "type": "cell-based, rat"}, "[7]": {"system": "adult rat hippocampal NPCs", "experiment": "Miniature EPSC recording of NPC progeny in coculture", "type": "cell-based", "details": "living coculture"}, "[8]": {"system": "proliferating adult-derived NPCs", "type": "cell-based, rat", "details": "fixed substrate; x-Rhod-1"}, "[9]": {"details": "rats, 1 mg/kg for 1 week, 30 days after treatment"}, "[10]": {"details": "anti-mitotic agent added at day 1"}, "[11]": {"details": "adult rats, 4 mg/kg daily for 1 week, not statistically significant"}}, "note": "“Also recorded” adds a separate entry of the source."}
{"smiles": "COC(=O)C1=C(C)NC(C)=C([N+](=O)[O-])C1c1ccccc1C(F)(F)F", "note": "(centres unmarked) [BayK 8644]", "values": [{"measurement": "increase in total newborn cell number versus control", "setting": "[1]; [9]", "value": 2.5, "unit": "fold"}, {"measurement": "neuronal fraction of newborn cells", "setting": "[1]; [9]", "value": "120±11 % of control"}, {"measurement": "neuronal fraction of newborn cells", "setting": "[1]; rats, 1 mg/kg for 1 week, 30 days after treatment, listed as BayK", "value": "120%±11%"}, {"measurement": "total BrdU+ cells per hippocampus (subgranular zone and hilus)", "setting": "[1]; rats, 1 mg/kg for 1 week, 30 days after treatment, unbiased stereology", "value": "19633±2677"}, {"measurement": "tolerability", "setting": "[2]", "value": "well-tolerated"}]}
{"smiles": "NC(CCCP(=O)(O)O)C(=O)O", "note": "[D-AP5]", "values": [{"measurement": "neurogenesis enhancement by excitation", "setting": "[3]; delayed application of D-AP5 on day 5, n=7", "value": "2.76±0.95", "unit": "fold"}, {"measurement": "excitation-induced neurogenesis", "setting": "[3]; fixed substrate, K+ depolarization, nifedipine 10 μM, D-AP5 50 μM", "value": "inhibited"}, {"measurement": "basal neurogenesis", "setting": "[3]; fixed substrate, no stimulation, D-AP5 50 μM", "value": "inhibited"}, {"measurement": "neurogenesis in the basal (Na) condition", "setting": "[4]", "value": "significant inhibition"}, {"measurement": "excitation-induced neurogenesis", "setting": "[4]; depolarization or glutamate, D-AP5 50 μM", "value": "blocked"}]}
{"smiles": "COC(=O)c1c(C)[nH]c(C)c1C(=O)c1ccccc1Cc1ccccc1", "note": "[FPL 64176]", "values": [{"measurement": "overt dystonias", "setting": "[5]", "value": "did not lead to overt dystonias"}, {"measurement": "treated animals that died shortly before sacrifice", "setting": "[5]; 7th experimental day", "value": "two"}, {"measurement": "fraction of newborn (BrdU+) cells assuming the neuronal phenotype (Dcx+)", "setting": "[1]; adult rats, 4 mg/kg daily for 1 week", "value": "relative increase"}, {"measurement": "neurogenesis with the agonist as stimulus", "setting": "[3]; fixed substrate", "value": "enhancement of neurogenesis"}, {"measurement": "neurogenesis after three 5 min pulses", "setting": "[3]; fixed substrate, pulses on days 1, 3 and 5", "value": "enhanced neurogenesis to a similar extent as continuous excitatory stimulation; also recorded: effective"}]}
{"smiles": "O=c1[nH]c(=O)n([C@H]2C[C@H](O)[C@@H](CO)O2)cc1F", "note": "[FUDR, 5-fluoro-2′-deoxyuridine]", "values": [{"measurement": "cells killed", "setting": "[3]; [10]", "value": "more than 95%"}, {"measurement": "neurogenic effects of excitation", "setting": "[3]; [10]", "value": "abolished"}]}
{"smiles": "CN[C@H](CC(=O)O)C(=O)O", "note": "[NMDA]", "values": [{"measurement": "neurogenesis with the agonist as stimulus", "setting": "[3]; fixed substrate", "value": "significant increase"}]}
{"smiles": "NC1=N[C@H](O)[C@H]2[C@H]3O[C@]4(O)O[C@@H]([C@@H](O)[C@@]2(N1)[C@@H]4O)[C@]3(O)CO", "note": "[TTX, Tetrodotoxin]", "values": [{"measurement": "inward Na+ current evoked with a step from -70 mV to -10 mV", "setting": "[6]", "value": "reversibly blocked"}]}
{"smiles": "CN1C(=O)CN=C(c2ccccc2)c2cc(Cl)ccc21", "note": "[diazepam]", "values": [{"measurement": "GFAP/BrdU double-positive cells (astroglial phenotype)", "setting": "[1]; rat, in vivo, 4 mg/kg", "value": 58.5, "unit": "%"}, {"measurement": "NG2/BrdU double-positive cells (oligodendroglial phenotype)", "setting": "[1]; rat, in vivo, 4 mg/kg", "value": 4.7, "unit": "%"}, {"measurement": "fraction of newborn (BrdU+) cells assuming the neuronal phenotype (Dcx+)", "setting": "[1]; rat, in vivo, 4 mg/kg", "value": "significant reduction"}]}
{"smiles": "N[C@@H](CCC(=O)O)C(=O)O", "note": "[glutamate]", "values": [{"measurement": "mean MAP2ab intensity in the resulting neuronal progeny", "setting": "[4]", "value": "no effect"}, {"measurement": "fraction of NPCs becoming neurons (MAP2ab+)", "setting": "[4]; 50 μM glutamate from day 1", "value": "increase; also recorded: increased neurogenesis"}, {"measurement": "fraction of NPCs becoming neurons (MAP2ab+)", "setting": "[4]; 50 μM glutamate from day 1, listed as Glu", "value": "promoted neurogenesis"}, {"measurement": "fraction of adult NPCs that received functional excitatory synaptic connections (mEPSCs)", "setting": "[7]", "value": "increase"}, {"measurement": "cells showing an increase in intracellular Ca2+", "setting": "[8]", "value": "44 of 73"}]}
{"smiles": "COC(=O)C1=C(C)NC(C)=C(C(=O)OC)C1c1ccccc1[N+](=O)[O-]", "note": "[nifedipine]", "values": [{"measurement": "GFAP/BrdU double-positive cells (astroglial phenotype)", "setting": "[1]; [11]", "value": 58.8, "unit": "%"}, {"measurement": "NG2/BrdU double-positive cells (oligodendroglial phenotype)", "setting": "[1]; [11]", "value": 3.5, "unit": "%"}]}
